Results published in US20240301435A1, “COMPOSITIONS AND METHODS FOR TRANSFORMATION OF MONOCOT SEED EXCISED EMBRYO EXPLANTS” (Monsanto Technology LLC, priority 2021, published 2024).
Several values for one entry are separate records, joined by “and”; a condition that tells them apart may be missing. Equal values may be shown once.

Tests used:
Type in all cases: cell-based, corn (Zea mays)
[1] = tested on: corn seed excised explants; assay: 2,4-D in co-culture medium on corn explant transformation, 17 experiments (Table 32)
Description: Seventeen independent experiments were conducted to evaluate the effect of 2,4-D in the co-culture medium on corn explant transformation. Corn explants were surface sterilized, purified, rehydrated, inoculated with Agrobacterium, co-cultured, and subjected to bud induction, extended bud induction, and regeneration as described in Example 1, unless otherwise noted. Agrobacterium containing the same Ti plasmid as described in Example 9 was used for all experiments, except for experiments 13-17, in which two different bacterial origins of replication in the Ti-plasmid were evaluated in the presence or absence of 2,4-D in co-culture medium. In these cases, the Ti plasmids carried the same two expression cassettes flanked by T-DNA borders, one comprising the chloroplast-targeted CP4 EPSPS gene under the control of a constitutive promoter and the other comprising the uidA gene under the control of a similar constitutive promoter.
Table 32 provides a summary of results from treatments with and without 2,4-D in the co-culture medium from the 17 experiments. […] The increase in normal plant frequency ranged from 1.1 to 3.0-fold with an average increase of 1.8-fold.
(§1) The normal plant frequency was calculated as the number of normal plants divided by the total number of inoculated explants.

[2] = tested on: corn seed excised explants; assay: 2,4-D in co-culture and co-culture duration 4 vs 5 days on corn explant transformation (Tables 34, 35); conditions: for # Normal Plants / Normal Plant Frequency (%) / Shoot Frequency (%) / Total # Shoots: 2,4-D (5 mg/L) in co-culture +; for average normal plant frequency (%): 2,4-D present in co-culture (5 mg/L)
Description: In a separate experiment, co-culture durations of 4 days and 5 days were evaluated in combination with the presence or absence of 5 mg/L 2,4-D in the co-culture medium. Corn seed excised explants were surface sterilized, rehydrated and inoculated with an Agrobacterium suspension as described in the preceding experiment. The Agrobacterium contained a chloroplast-targeted CP4 EPSPS gene under the control of a constitutive promoter flanked by T-DNA borders on the Ti plasmid. The inoculated explants were transferred to co-culture plates with or without 5 mg/L 2,4-D and co-cultured for 4 or 5 days prior to bud induction, extended bud induction, and regeneration as described in the preceding experiment.
Furthermore, co-culture for 4 days produced a higher normal plant frequency compared to co-culture for 5 days.
The shoot frequency was calculated as the number of inoculated explants producing shoots divided by the total number of inoculated explants. The normal plant frequency was calculated as the number of normal plants divided by the total number of inoculated explants.
as §1

[3] = tested on: corn explants; assay: Different cytokinins during bud induction on corn explant transformation (Table 30); conditions: for # Normal Shoot / Total # Shoot: 5,000 explants
Description: An experiment was conducted to evaluate the effect of using different cytokinins during bud induction on corn explant transformation. Corn explants were surface sterilized, purified, rehydrated, inoculated with Agrobacterium, co-cultured, and subjected to the bud induction (without the second extended bud induction step) and regeneration steps as described in Example 1, unless otherwise noted. Glyphosate was used as the selection agent.
In this experiment, bud induction using four cytokinins, 6-Benzylaminopurine (BAP), Zeatin, thidiazuron (TDZ) and 6-(γ,γ-dimethylallylamino)purine (2iP), was evaluated.
The shoot frequency was calculated as the number of inoculated explants producing shoots divided by the total number of inoculated explants. The normal shoot frequency was calculated as the number of normal shoots divided by the total number of inoculated explants.

[4] = tested on: corn seed excised explants; assay: Corn explant transformation: bud induction with different glyphosate concentrations, 28° C. vs 35° C. first week (Table 2)
Description: To evaluate the effect of elevated temperature during the initial bud induction step on transformation, two temperature treatments were evaluated using glyphosate for selection: 1) bud induction for two weeks at 28° C.; and 2) bud induction for one week at an elevated temperature of 35° C. followed by one week of bud induction at 28° C. The proceeding and subsequent steps for transformation of the corn explants in this experiment were generally performed as described in Example 1.
Following Agrobacterium inoculation and co-culture, corn explants were transferred to bud induction medium containing MS salts and B5 vitamins supplemented with 2 mg/L TDZ, 1 mg/L 2,4-D and different concentrations of glyphosate and cultured under the temperature conditions described above.
Total number shoots was calculated as the total number of shoots regenerated from inoculated explants, including both normal and chimeric shoots. The shoot frequency was calculated as the number of inoculated explants producing shoots divided by the total number of inoculated explants. […] The percentage normal shoots was calculated as the number of normal shoots divided by the total number of shoots. Normal shoot frequency was calculated as the number of normal shoots divided by the total number of inoculated explants.

[5] = cytokinin 10 mg/L in bud induction
[6] = glyphosate 12.5 μM, 1st week bud induction 28° C.
[7] = glyphosate 12.5 μM, 1st week bud induction 35° C.
[8] = glyphosate 25.0 μM, 1st week bud induction 28° C.
[9] = glyphosate 25.0 μM, 1st week bud induction 35° C.
[10] = glyphosate 37.5 μM, 1st week bud induction 28° C.
[11] = glyphosate 37.5 μM, 1st week bud induction 35° C.
[12] = glyphosate 50.0 μM, 1st week bud induction 28° C.
[13] = glyphosate 50.0 μM, 1st week bud induction 35° C.
[14] = cytokinin 2 mg/L in bud induction

O=C(O)COc1ccc(Cl)cc1Cl [2,4-D, 2,4-dichlorophenoxyacetic acid]
Normal Plant Frequency (%) With 2,4-D (5 mg/L) ([1]; 2,4-D 5 mg/L in co-culture medium, individual experiments 1-17, normal plants / inoculated explants): 1.10% and 1.24% and 1.48% and 0.20% and 0.60% and 2.40% and 1.70% (2×) and 4.20% and 1.50% and 0.40% (2×) and 0.70% and 0.80% and 1.40% and 1.00% and 1.56%
Normal Plant Frequency (%) With 2,4-D (5 mg/L), OVERALL ([1]; 2,4-D 5 mg/L in co-culture medium, overall of 17 experiments): 1.32%
average increase in normal plant frequency on removal of 2,4-D from the co-culture medium ([1]; 17 experiments): 1.8 fold
# Normal Plants ([2]; co-culture duration 4 days): 19 and 10
Normal Plant Frequency (%) ([2]; co-culture duration 4 days): 0.8% and 0.9%
Shoot Frequency (%) ([2]; co-culture duration 4 days): 1.5% and 1.1%
Total # Shoots ([2]; co-culture duration 4 days): 35 and 21
# Normal Plants ([2]; co-culture duration 5 days): 4
Normal Plant Frequency (%) ([2]; co-culture duration 5 days): 0.5%
Shoot Frequency (%) ([2]; co-culture duration 5 days): 1.1%
Total # Shoots ([2]; co-culture duration 5 days): 9
average normal plant frequency (%) ([2]; duration 4 days): 0.85%
average normal plant frequency (%) ([2]; duration 5 days): 0.5%
average normal plant frequency ([2]; 2,4-D present in co-culture medium (5 mg/L), 4 and 5 days): 0.73%

CC(C)=CCNc1ncnc2nc[nH]c12 [2iP, 6-(γ,γ-dimethylallylamino)purine]
Normal Shoot Frequency (%) [3, 5]: 0.06%
Shoot Frequency (%) [3, 5]: 0.14%
# Normal Shoot [3, 5]: 3
Total # Shoot [3, 5]: 7

c1ccc(CNc2ncnc3nc[nH]c23)cc1 [BAP, 6-Benzylaminopurine]
Normal Shoot Frequency (%) [3, 5]: 1.56%
Shoot Frequency (%) [3, 5]: 5.80%
# Normal Shoot [3, 5]: 78
Total # Shoot [3, 5]: 290
bud induction ([3]; other studies, 1-8 mg/L BAP): bud induction was also observed

O=C(O)CNCP(=O)(O)O [Glyphosate, glyphosate]
Normal Shoot Frequency (%) [4, 6]: 0.36%
Normal Shoots (%) [4, 6]: 10.23%
Shoot Frequency (%) [4, 6]: 3.52%
Total # Normal Shoots [4, 6]: 9
Total # Shoots [4, 6]: 88
Normal Shoot Frequency (%) [4, 7]: 1.12%
Normal Shoots (%) [4, 7]: 14.43%
Shoot Frequency (%) [4, 7]: 7.76%
Total # Normal Shoots [4, 7]: 28
Total # Shoots [4, 7]: 194
Normal Shoot Frequency (%) [4, 8]: 0.28%
Normal Shoots (%) [4, 8]: 31.82%
Shoot Frequency (%) [4, 8]: 0.88%
Total # Normal Shoots [4, 8]: 7
Total # Shoots [4, 8]: 22
Normal Shoot Frequency (%) [4, 9]: 1.84%
Normal Shoots (%) [4, 9]: 20.91%
Shoot Frequency (%) [4, 9]: 8.8%
Total # Normal Shoots [4, 9]: 46
Total # Shoots [4, 9]: 220
Normal Shoot Frequency (%) [4, 10]: 0.2%
Normal Shoots (%) [4, 10]: 83.33%
Shoot Frequency (%) [4, 10]: 0.24%
Total # Normal Shoots [4, 10]: 5
Total # Shoots [4, 10]: 6
Normal Shoot Frequency (%) [4, 11]: 1.36%
Normal Shoots (%) [4, 11]: 22.82%
Shoot Frequency (%) [4, 11]: 5.96%
Total # Normal Shoots [4, 11]: 34
Total # Shoots [4, 11]: 149
Normal Shoot Frequency (%) [4, 12]: 0.16%
Normal Shoots (%) [4, 12]: 66.67%
Shoot Frequency (%) [4, 12]: 0.24%
Total # Normal Shoots [4, 12]: 4
Total # Shoots [4, 12]: 6
Normal Shoot Frequency (%) [4, 13]: 1.8%
Normal Shoots (%) [4, 13]: 32.61%
Shoot Frequency (%) [4, 13]: 5.52%
Total # Normal Shoots [4, 13]: 45
Total # Shoots [4, 13]: 138

O=C(Nc1ccccc1)Nc1cnns1 [TDZ, thidiazuron]
Normal Shoot Frequency (%) [3, 14]: 1.70%
Shoot Frequency (%) [3, 14]: 8.88%
# Normal Shoot [3, 14]: 85
Total # Shoot [3, 14]: 444

C/C(=C\CNc1ncnc2[nH]cnc12)CO [Zeatin]
Normal Shoot Frequency (%) [3, 14]: 0.06%
Shoot Frequency (%) [3, 14]: 0.20%
# Normal Shoot [3, 14]: 3
Total # Shoot [3, 14]: 10
